Data taken from patent publication US20070049593A1 (priority 2004, published 2007).
Where a name gives a salt, the structure may show the parent alone.

biological target: T1, HCV polymerase (Hepatitis C virus genotype 1b, UniProt P26663); assay: biochemical; design: species or system HCV BK strain
T1 construct: a region encoding NS5B (J Virol 1991 March, 65(3), 1105-13, 544 amino acids after deletion of 47 amino acids on the C-terminal); 6xHis (C); made in house; host or cells: Escherichia coli
Summary of the method: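 His-tagged NS5B (BK strain, 47-aa C-terminal deletion, E. coli-expressed) at 0.5 μg/ml copied 5 μg/ml run-off RNA bearing the HCV 3′ UTR with 2 μM UTP plus [3H]UTP, 50 μM ATP/GTP, in pH 7.5 Tris with 5 mM MgCl2, 25 °C, 90 min. TCA-precipitated RNA was counted and IC50 calculated.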

T1 sequence (P26663 2420-2963): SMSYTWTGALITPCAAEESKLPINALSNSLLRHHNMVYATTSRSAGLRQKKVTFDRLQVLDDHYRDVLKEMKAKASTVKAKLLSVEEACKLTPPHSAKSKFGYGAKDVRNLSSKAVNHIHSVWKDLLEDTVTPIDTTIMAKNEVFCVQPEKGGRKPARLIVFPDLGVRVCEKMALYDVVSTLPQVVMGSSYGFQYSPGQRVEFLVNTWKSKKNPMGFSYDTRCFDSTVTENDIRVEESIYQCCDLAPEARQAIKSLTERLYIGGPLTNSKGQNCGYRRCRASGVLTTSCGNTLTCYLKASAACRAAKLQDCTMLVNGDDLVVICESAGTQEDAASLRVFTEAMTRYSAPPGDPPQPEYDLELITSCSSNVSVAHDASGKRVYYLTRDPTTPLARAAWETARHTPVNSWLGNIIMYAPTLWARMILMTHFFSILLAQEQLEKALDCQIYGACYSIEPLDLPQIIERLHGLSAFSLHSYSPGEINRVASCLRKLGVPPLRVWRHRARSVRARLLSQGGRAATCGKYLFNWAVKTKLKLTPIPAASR

Row | SMILES | IC50 [µM]
1 | CCN1CCC(CCN(CC)c2cccc3c2OCCn2c-3c(C3CCCCC3)c3ccc(C(=O)O)cc32)CC1 [Example 2-243, 12-cyclohexyl-4-{N-ethyl-N-[2-(1-ethylpiperidin-4-yl)ethyl]amino}-6,7-dihydro-5-oxa-7a-azadibenzo[a,e]azulene-9-carboxylic acid dihydrochloride] | < 0.1
2 | CCCC1CCCN(CCN2CCn3c(c(C4CCCCC4)c4ccc(C(=O)O)cc43)-c3ccc(Cl)cc32)C1 (stereo not shown) [Example 1-267, 3-chloro-13-cyclohexyl-5-[2-(3-propylpiperidin-1-yl)ethyl]-6,7-dihydro-5H-benzo[5,6][1,4]diazepino[7,1-a]indole-10-carboxylic acid dihydrochloride] | < 0.1
3 | O=C(O)c1ccc2c(C3CCCCC3)c3n(c2c1)CCCc1ccccc1-3 [Example 5-2, 13-cyclohexyl-6,7-dihydro-5H-benzo[3,4]azepino[1,2-a]indole-10-carboxylic acid] | < 0.1
4 | O=C(O)c1ccc2c(C3CCCCC3)c3n(c2c1)CCOc1cc(OC2CCCNC2)ccc1-3 (stereo not shown) [Example 2-46, 12-cyclohexyl-3-(piperidin-3-yloxy)-6,7-dihydro-5-oxa-7a-azadibenzo[a,e]azulene-9-carboxylic acid monohydrochloride] | < 0.1
5 | O=C(O)c1ccc2c(C3CCCCC3)c3n(c2c1)CCSc1ccccc1-3 [Example 12-1, 12-cyclohexyl-6,7-dihydro-5-thia-7a-azadibenzo[a,e]azulene-9-carboxylic acid] | < 0.1
6 | CCC1CCN(CCN2CCn3c(c(C4CCCCC4)c4ccc(C(=O)O)cc43)-c3ccc(C)cc32)C1 (stereo not shown) [Example 1-384, 13-cyclohexyl-5-[2-(3-ethylpyrrolidin-1-yl)ethyl]-3-methyl-6,7-dihydro-5H-benzo[5,6][1,4]diazepino[7,1-a]indole-10-carboxylic acid dihydrochloride] | < 0.1
7 | COC(=O)[C@H](Cc1ccc(F)cc1)NC(=O)c1ccc2c(C3CCCCC3)c3n(c2c1)CCOc1cc(OC)ccc1-3 [Example 2-279, methyl (S)-2-[(12-cyclohexyl-3-methoxy-6,7-dihydro-5-oxa-7a-azadibenzo[a,e]azulene-9-carbonyl)amino]-3-(4-fluorophenyl)propionate] | < 0.1
8 | O=C(O)c1ccc2c(C3CCCCC3)c3n(c2c1)CCOc1cc(Cl)ccc1-3 [Example 9-4, 3-chloro-12-cyclohexyl-6,7-dihydro-5-oxa-7a-azadibenzo[a,e]azulene-9-carboxylic acid] | < 0.1
9 | CNC(=O)c1ccc(-c2cnc(C(C)(C)NC(=O)c3ccc4c(C5CCCCC5)c5n(c4c3)CCOc3cc(OC)ccc3-5)[nH]2)cc1 [Example 2-547, N-{1-methyl-1-[5-(4-methylcarbamoylphenyl)-1H-imidazol-2-yl]ethyl}-12-cyclohexyl-3-methoxy-6,7-dihydro-5-oxa-7a-azadibenzo[a,e]azulene-9-carboxamide] | < 0.1
10 | COC(=O)N1CCC(N(C)CCN2CCn3c(c(C4CCCCC4)c4ccc(C(=O)O)cc43)-c3ccccc32)CC1 [Example 1-281, 13-cyclohexyl-5-{2-[N-(1-methoxycarbonylpiperidin-4-yl)-N-methylamino]ethyl}-6,7-dihydro-5H-benzo[5,6][1,4]diazepino[7,1-a]indole-10-carboxylic acid monohydrochloride] | < 0.1
11 | COc1ccc2c(c1)OCCn1c-2c(C2CCCCC2)c2ccc(C(=O)NC(C)(C)c3nc4ccccc4o3)cc21 [Example 2-348, N-[1-(benzoxazol-2-yl)-1-methylethyl]-12-cyclohexyl-3-methoxy-6,7-dihydro-5-oxa-7a-azadibenzo[a,e]azulene-9-carboxamide] | < 0.1
12 | CC(C)N1CCN(C(=O)CN2CCn3c(c(C4CCCCC4)c4ccc(C(=O)O)cc43)-c3ccccc32)CC1 [Example 1-47, 13-cyclohexyl-5-[2-(4-isopropylpiperazin-1-yl)-2-oxoethyl]-6,7-dihydro-5H-benzo[5,6][1,4]diazepino[7,1-a]indole-10-carboxylic acid dihydrochloride] | < 0.1
13 | COC(=O)[C@H](Cc1ccc(NS(C)(=O)=O)cc1)NC(=O)c1ccc2c(C3CCCCC3)c3n(c2c1)CCOc1cc(OC)ccc1-3 [Example 2-339, methyl (S)-2-[(12-cyclohexyl-3-methoxy-6,7-dihydro-5-oxa-7a-azadibenzo[a,e]azulene-9-carbonyl)amino]-3-(4-methanesulfonylaminophenyl)propionate] | < 0.1
14 | CC(C)OC1CCCN(CCN2CCn3c(c(C4CCCCC4)c4ccc(C(=O)O)cc43)-c3ccc(Cl)cc32)C1 (stereo not shown) [Example 1-393, 3-chloro-13-cyclohexyl-5-[2-(3-isopropoxypiperidin-1-yl)ethyl]-6,7-dihydro-5H-benzo[5,6][1,4]diazepino[7,1-a]indole-10-carboxylic acid monohydrochloride] | < 0.1
15 | O=C(O)c1ccc2c(C3CCCCC3)c3n(c2c1)CCN(CCN1CCC2(CCCC2)CC1)c1ccccc1-3 [Example 1-184, 5-[2-(8-azaspiro[4.5]decan-8-yl)ethyl]-13-cyclohexyl-6,7-dihydro-5H-benzo[5,6][1,4]diazepino[7,1-a]indole-10-carboxylic acid dihydrochloride] | < 0.1
16 | COCCC1CCCN(CCN2CCn3c(c(C4CCCCC4)c4ccc(C(=O)O)cc43)-c3ccc(C)cc32)C1 (stereo not shown) [Example 1-308, 13-cyclohexyl-5-{2-[3-(2-methoxyethyl)piperidin-1-yl]ethyl}-3-methyl-6,7-dihydro-5H-benzo[5,6][1,4]diazepino[7,1-a]indole-10-carboxylic acid dihydrochloride] | < 0.1
17 | COc1ccc2c(c1)OCCn1c-2c(C2CCCCC2)c2ccc(C(=O)N[C@@H](Cc3ccc(OCc4ccccc4)cc3)C3OCCO3)cc21 [Example 2-538, N—[(S)-2-(4-benzyloxyphenyl)-1-(1,3-dioxolan-2-yl)ethyl]-12-cyclohexyl-3-methoxy-6,7-dihydro-5-oxa-7a-azadibenzo[a,e]azulene-9-carboxamide] | < 0.1
18 | CCCc1ccc2c(c1)N(CCN1CCCCC1)CCn1c-2c(C2CCCCC2)c2ccc(C(=O)O)cc21 [Example 1-343, 13-cyclohexyl-5-[2-(piperidin-1-yl)ethyl]-3-propyl-6,7-dihydro-5H-benzo[5,6][1,4]diazepino[7,1-a]indole-10-carboxylic acid dihydrochloride] | < 0.1
19 | O=C(O)c1ccc2c(C3CCCCC3)c3n(c2c1)CCOc1c-3cccc1N(CC(=O)N1CCCOCC1)CC(=O)N1CCCOCC1 [Example 2-357, 4-{bis[2-(1,4-oxazepan-4-yl)-2-oxoethyl]amino}-12-cyclohexyl-6,7-dihydro-5-oxa-7a-azadibenzo[a,e]azulene-9-carboxylic acid] | < 0.1
20 | CC1CCCCN1CCCN1CCn2c(c(C3CCCCC3)c3ccc(C(=O)O)cc32)-c2ccc(Cl)cc21 (stereo not shown) [Example 1-322, 3-chloro-13-cyclohexyl-5-[3-(2-methylpiperidin-1-yl)propyl]-6,7-dihydro-5H-benzo[5,6][1,4]diazepino[7,1-a]indole-10-carboxylic acid] | < 0.1
21 | COC(=O)[C@H](Cc1ccc(OCCCO)cc1)NC(=O)c1ccc2c(C3CCCCC3)c3n(c2c1)CCOc1cc(OC)ccc1-3 [Example 2-392, methyl (S)-2-[(12-cyclohexyl-3-methoxy-6,7-dihydro-5-oxa-7a-azadibenzo[a,e]azulene-9-carbonyl)amino]-3-[4-(3-hydroxypropoxy)phenyl]propionate] | < 0.1
22 | CN1CCC(N(C)CCN2CCn3c(c(C4CCCCC4)c4ccc(C(=O)O)cc43)-c3ccccc32)CC1 [Example 1-282, 13-cyclohexyl-5-{2-[N-methyl-N-(1-methylpiperidin-4-yl)amino]ethyl}-6,7-dihydro-5H-benzo[5,6][1,4]diazepino[7,1-a]indole-10-carboxylic acid dihydrochloride] | < 0.1
23 | CC(C)[C@@H](COc1ccc2c(c1)OCCn1c-2c(C2CCCCC2)c2ccc(C(=O)O)cc21)NS(C)(=O)=O [Example 2-51, 12-cyclohexyl-3-((S)-2-methanesulfonylamino-3-methylbutoxy)-6,7-dihydro-5-oxa-7a-azadibenzo[a,e]azulene-9-carboxylic acid] | < 0.1
24 | O=C(O)c1ccc2c(C3CCCCC3)c3n(c2c1)CSc1ccccc1-3 [Example 12-2, 11-cyclohexyl-5-thia-6a-azabenzo[a]fluorene-8-carboxylic acid] | 0.1 to 1
25 | CCC1CCN(CCN2CCn3c(c(C4CCCCC4)c4ccc(C(=O)O)cc43)-c3ccccc32)C1 (stereo not shown) [Example 1-382, 13-cyclohexyl-5-[2-(3-ethylpyrrolidin-1-yl)ethyl]-6,7-dihydro-5H-benzo[5,6][1,4]diazepino[7,1-a]indole-10-carboxylic acid dihydrochloride] | < 0.1
26 | O=C(O)c1ccc2c(C3CCCCC3)c3n(c2c1)CCOc1c-3cccc1N(CC(=O)N1CCCCC1)CC(=O)N1CCCCC1 [Example 2-277, 4-{bis[2-oxo-2-(piperidin-1-yl)ethyl]amino}-12-cyclohexyl-6,7-dihydro-5-oxa-7a-azadibenzo[a,e]azulene-9-carboxylic acid] | < 0.1
27 | O=C(O)c1ccc2c(c1)N(CCN1CCCCC1)CCn1c-2c(C2CCCCC2)c2ccc(C(=O)O)cc21 [Example 1-495, 13-cyclohexyl-5-[2-(piperidin-1-yl)ethyl]-6,7-dihydro-5H-benzo[5,6][1,4]diazepino[7,1-a]indole-3,10-dicarboxylic acid monohydrochloride] | < 0.1
28 | Cn1c(C(C)(C)NC(=O)c2ccc3c(C4CCCCC4)c4n(c3c2)CCOc2ccccc2-4)nc2cc(C(=O)O)ccc21 [Example 2-330, 2-{1-[(12-cyclohexyl-6,7-dihydro-5-oxa-7a-azadibenzo[a,e]azulene-9-carbonyl)amino]-1-methylethyl}-1-methyl-1H-benzimidazole-5-carboxylic acid] | < 0.1
